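Protocol summary: plate cells (96-well), add compound at 5 concentrations, incubate 48 h, interpolate endpoints linearly. TGI marks complete inhibition of growth.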
System: DLD-1 colon
Test: NCI tumour cell line growth inhibition, 48 h

Row | SMILES | TGI
1 | CNS(=O)(=O)NNS(=O)(=O)c1ccc2ccccc2c1 | > 100 µM
2 | CCOC(=O)CN1C(=O)c2cccc3cc([N+](=O)[O-])cc(c23)C1=O | 5.43 µM
3 | CC(N)Cc1ccc(C(=O)Cl)cc1 (stereo not given) | > 100 µM

System: DMS 114 small cell lung
Test: NCI tumour cell line growth inhibition, 48 h

Row | SMILES | TGI
4 | CCN(CC)CCC(=O)Nc1ccc2c(c1)C(=O)c1ccc(NC(=O)CCN(CC)CC)cc1C2=O | 13 µM
5 | COc1ccc(C(=O)C(C(=O)CCC(=O)Nc2ccc(C)c(C)c2)c2ccc(OC)cc2)cc1 (stereo not given) | > 100 µM
6 | COc1cc2c(cc1OC)-c1c3cc(O)ccc3nn[n+]1CC2 | > 100 µM
7 | CCCCCCCCCCCCCCCCCC(CCCCCCCCCCCCCCCCC)OP(=O)(O)O | > 100 µM
8 | O=C(COc1ccc(Br)cc1Br)N1N=C(c2ccc([N+](=O)[O-])o2)CC1(O)c1ccccc1 (stereo not given) | 23.5 µM
9 | CNS(=O)(=O)NNS(=O)(=O)c1ccc2ccccc2c1 | > 100 µM
10 | CCOC(=O)CN1C(=O)c2cccc3cc([N+](=O)[O-])cc(c23)C1=O | 4.94 µM
11 | CC(N)Cc1ccc(C(=O)Cl)cc1 (stereo not given) | > 100 µM

System: DMS 273 small cell lung
Test: NCI tumour cell line growth inhibition, 48 h

Row | SMILES | TGI
12 | CCN(CC)CCC(=O)Nc1ccc2c(c1)C(=O)c1ccc(NC(=O)CCN(CC)CC)cc1C2=O | 3.82 µM
13 | COc1ccc(C(=O)C(C(=O)CCC(=O)Nc2ccc(C)c(C)c2)c2ccc(OC)cc2)cc1 (stereo not given) | > 100 µM
14 | COc1cc2c(cc1OC)-c1c3cc(O)ccc3nn[n+]1CC2 | > 100 µM
15 | CCCCCCCCCCCCCCCCCC(CCCCCCCCCCCCCCCCC)OP(=O)(O)O | > 100 µM
16 | O=C(COc1ccc(Br)cc1Br)N1N=C(c2ccc([N+](=O)[O-])o2)CC1(O)c1ccccc1 (stereo not given) | 32.5 µM
17 | CNS(=O)(=O)NNS(=O)(=O)c1ccc2ccccc2c1 | > 100 µM

System: EKVX NSCLC
Test: NCI tumour cell line growth inhibition, 48 h

Row | SMILES | TGI
18 | CCN(CC)CCC(=O)Nc1ccc2c(c1)C(=O)c1ccc(NC(=O)CCN(CC)CC)cc1C2=O | 15.1 µM
19 | COc1cc2c(cc1OC)-c1c3cc(O)ccc3nn[n+]1CC2 | > 100 µM
20 | CCCCCCCCCCCCCCCCCC(CCCCCCCCCCCCCCCCC)OP(=O)(O)O | > 100 µM
21 | O=C(COc1ccc(Br)cc1Br)N1N=C(c2ccc([N+](=O)[O-])o2)CC1(O)c1ccccc1 (stereo not given) | 9.59 µM
22 | CNS(=O)(=O)NNS(=O)(=O)c1ccc2ccccc2c1 | > 100 µM
23 | CCOC(=O)CN1C(=O)c2cccc3cc([N+](=O)[O-])cc(c23)C1=O | 28.6 µM
24 | CC(N)Cc1ccc(C(=O)Cl)cc1 (stereo not given) | > 100 µM

System: HCC-2998 colon
Test: NCI tumour cell line growth inhibition, 48 h

Row | SMILES | TGI
25 | CCN(CC)CCC(=O)Nc1ccc2c(c1)C(=O)c1ccc(NC(=O)CCN(CC)CC)cc1C2=O | > 100 µM
26 | COc1ccc(C(=O)C(C(=O)CCC(=O)Nc2ccc(C)c(C)c2)c2ccc(OC)cc2)cc1 (stereo not given) | > 100 µM
27 | COc1cc2c(cc1OC)-c1c3cc(O)ccc3nn[n+]1CC2 | > 100 µM
28 | CCCCCCCCCCCCCCCCCC(CCCCCCCCCCCCCCCCC)OP(=O)(O)O | > 100 µM
29 | O=C(COc1ccc(Br)cc1Br)N1N=C(c2ccc([N+](=O)[O-])o2)CC1(O)c1ccccc1 (stereo not given) | 23.1 µM
30 | CNS(=O)(=O)NNS(=O)(=O)c1ccc2ccccc2c1 | > 100 µM
31 | CCOC(=O)CN1C(=O)c2cccc3cc([N+](=O)[O-])cc(c23)C1=O | 14.8 µM
32 | CC(N)Cc1ccc(C(=O)Cl)cc1 (stereo not given) | > 100 µM

System: HCT-116 colon
Test: NCI tumour cell line growth inhibition, 48 h

Row | SMILES | TGI
33 | CCN(CC)CCC(=O)Nc1ccc2c(c1)C(=O)c1ccc(NC(=O)CCN(CC)CC)cc1C2=O | 10.1 µM
34 | COc1ccc(C(=O)C(C(=O)CCC(=O)Nc2ccc(C)c(C)c2)c2ccc(OC)cc2)cc1 (stereo not given) | > 100 µM
35 | COc1cc2c(cc1OC)-c1c3cc(O)ccc3nn[n+]1CC2 | > 100 µM
36 | CCCCCCCCCCCCCCCCCC(CCCCCCCCCCCCCCCCC)OP(=O)(O)O | > 100 µM
37 | O=C(COc1ccc(Br)cc1Br)N1N=C(c2ccc([N+](=O)[O-])o2)CC1(O)c1ccccc1 (stereo not given) | 33.2 µM
38 | CNS(=O)(=O)NNS(=O)(=O)c1ccc2ccccc2c1 | > 100 µM
39 | CCOC(=O)CN1C(=O)c2cccc3cc([N+](=O)[O-])cc(c23)C1=O | 3 µM
40 | CC(N)Cc1ccc(C(=O)Cl)cc1 (stereo not given) | > 100 µM

System: HCT-15 colon
Test: NCI tumour cell line growth inhibition, 48 h

Row | SMILES | TGI
41 | CCN(CC)CCC(=O)Nc1ccc2c(c1)C(=O)c1ccc(NC(=O)CCN(CC)CC)cc1C2=O | 14.8 µM
42 | COc1ccc(C(=O)C(C(=O)CCC(=O)Nc2ccc(C)c(C)c2)c2ccc(OC)cc2)cc1 (stereo not given) | > 100 µM
43 | CCCCCCCCCCCCCCCCCC(CCCCCCCCCCCCCCCCC)OP(=O)(O)O | > 100 µM
44 | O=C(COc1ccc(Br)cc1Br)N1N=C(c2ccc([N+](=O)[O-])o2)CC1(O)c1ccccc1 (stereo not given) | 18.7 µM
45 | CNS(=O)(=O)NNS(=O)(=O)c1ccc2ccccc2c1 | > 100 µM
46 | CCOC(=O)CN1C(=O)c2cccc3cc([N+](=O)[O-])cc(c23)C1=O | 3.47 µM
47 | CC(N)Cc1ccc(C(=O)Cl)cc1 (stereo not given) | > 100 µM

System: HL-60(TB) leukemia
Test: NCI tumour cell line growth inhibition, 48 h

Row | SMILES | TGI
48 | CCN(CC)CCC(=O)Nc1ccc2c(c1)C(=O)c1ccc(NC(=O)CCN(CC)CC)cc1C2=O | 16.7 µM
49 | COc1ccc(C(=O)C(C(=O)CCC(=O)Nc2ccc(C)c(C)c2)c2ccc(OC)cc2)cc1 (stereo not given) | > 100 µM
50 | COc1cc2c(cc1OC)-c1c3cc(O)ccc3nn[n+]1CC2 | > 100 µM
